Experiments:
human EHMT2 913-1193 = target: T1, human EHMT2 913-1193 (Homo sapiens, UniProt Q96KQ7); experiment: EHMT2 enzyme assay on histone peptide substrate (EHMT2 PEP); assay type: biochemical; details: Table VI; read-out: EHMT2 PEP IC50
T1 construct: recombinant purified human EHMT2 913-1193, Viva; purchased Viva
T1 sequence (Q96KQ7 913-1193): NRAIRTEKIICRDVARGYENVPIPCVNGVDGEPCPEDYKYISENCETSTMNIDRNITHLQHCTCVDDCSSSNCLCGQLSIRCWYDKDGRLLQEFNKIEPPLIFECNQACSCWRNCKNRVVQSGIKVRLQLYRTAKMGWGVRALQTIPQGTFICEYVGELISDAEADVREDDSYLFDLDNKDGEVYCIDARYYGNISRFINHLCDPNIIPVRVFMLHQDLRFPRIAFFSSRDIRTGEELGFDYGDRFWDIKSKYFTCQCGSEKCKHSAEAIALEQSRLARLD
Procedure, shortened: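 Radiometric methyltransferase read-out: ^3H-methyl transfer from ^3H-SAM onto biotinylated histone peptide, captured on streptavidin Flashplates after 60 min reaction at room temperature. Enzyme 0.031 nM, preincubated 30 min with inhibitor; buffer 20 mM Bicine pH 7.5 with 1 mM TCEP; top compound concentration 50 μM final, 2% DMSO.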

EHMT1 = target: T2, EHMT1 (Homo sapiens, UniProt Q9H9B1); experiment: EHMT1 enzyme assay on peptide substrate (EHMT1 PEP); assay type: biochemical; details: Table VI; read-out: EHMT1 PEP IC50
T2 sequence (Q9H9B1 1-1298): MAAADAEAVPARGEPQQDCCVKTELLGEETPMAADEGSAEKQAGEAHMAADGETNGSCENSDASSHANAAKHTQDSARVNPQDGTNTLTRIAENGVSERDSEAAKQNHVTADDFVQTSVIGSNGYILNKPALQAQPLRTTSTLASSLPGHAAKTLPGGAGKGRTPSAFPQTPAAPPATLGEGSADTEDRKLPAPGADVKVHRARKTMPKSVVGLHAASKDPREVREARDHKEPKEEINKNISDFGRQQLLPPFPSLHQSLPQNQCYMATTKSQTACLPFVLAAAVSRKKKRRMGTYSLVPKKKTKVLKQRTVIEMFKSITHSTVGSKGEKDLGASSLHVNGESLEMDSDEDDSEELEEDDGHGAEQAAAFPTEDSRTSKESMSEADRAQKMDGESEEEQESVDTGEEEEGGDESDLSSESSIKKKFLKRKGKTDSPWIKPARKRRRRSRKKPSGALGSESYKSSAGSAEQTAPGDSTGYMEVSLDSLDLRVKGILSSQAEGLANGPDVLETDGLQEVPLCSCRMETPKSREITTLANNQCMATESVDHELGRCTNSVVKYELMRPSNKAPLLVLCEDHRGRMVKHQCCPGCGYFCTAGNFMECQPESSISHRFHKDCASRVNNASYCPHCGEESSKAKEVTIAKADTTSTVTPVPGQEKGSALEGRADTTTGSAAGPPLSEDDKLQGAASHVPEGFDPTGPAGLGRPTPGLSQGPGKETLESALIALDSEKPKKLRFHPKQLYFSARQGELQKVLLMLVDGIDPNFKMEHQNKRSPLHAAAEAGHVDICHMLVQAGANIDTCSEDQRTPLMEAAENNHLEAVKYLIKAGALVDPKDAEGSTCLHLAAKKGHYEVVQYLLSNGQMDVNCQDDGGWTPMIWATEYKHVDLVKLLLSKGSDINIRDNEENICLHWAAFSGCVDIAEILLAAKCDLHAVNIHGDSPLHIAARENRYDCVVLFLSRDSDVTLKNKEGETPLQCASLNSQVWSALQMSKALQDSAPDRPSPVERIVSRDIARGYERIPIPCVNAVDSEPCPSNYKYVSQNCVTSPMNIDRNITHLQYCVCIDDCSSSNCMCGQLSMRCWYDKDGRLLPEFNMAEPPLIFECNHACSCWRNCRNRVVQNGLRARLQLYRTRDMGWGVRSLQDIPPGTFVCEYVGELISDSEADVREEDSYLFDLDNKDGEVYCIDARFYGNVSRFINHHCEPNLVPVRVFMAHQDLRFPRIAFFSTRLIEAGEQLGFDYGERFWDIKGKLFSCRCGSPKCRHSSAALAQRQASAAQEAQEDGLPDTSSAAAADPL

| SMILES | IC50 (human EHMT2 913-1193) [nM] | IC50 (EHMT1) [nM] |
| --- | --- | --- |
| CNc1cc(C)nc(Nc2cc(OCCCN3CCCC3)c3[nH]nnc3c2)n1 [Compound 624] | 100 to 1000 | < 100 |
| CNc1nc2cc(OCCCN3CCCC3)c(OC)cc2cc1F [Compound 897] | > 10000 | 1000 to 10000 |
| CNc1cc(C)nc(Nc2cnc(OC)c(OC[C@@H](O)CN3CCCC3)c2)n1 [Compound 881] | 100 to 1000 | 100 to 1000 |
| COc1ncc(Nc2nc(C)cc(NCC3COC3)n2)cc1OC[C@@H](O)CN1CCCC1 [Compound 883] | > 10000 | > 10000 |
| CNC(=O)CCNc1cc(C)nc(Nc2cnc(OC)c(OCCCN3CCCC3)c2)n1 [Compound 887] | 100 to 1000 | 100 to 1000 |
| COc1cc2cc(F)c(C)nc2cc1OCCCN1CCCC1 [Compound 896] | > 10000 | > 10000 |
| CNC[C@H](COc1cc(Nc2nccc(NC)n2)ccc1OC)OC [Compound 921] | > 10000 | > 10000 |
| CCNc1cc(C2CCOCC2)c2cc(OC)c(OCCCN3CCCC3)cc2n1 [Compound 865] | < 100 | < 100 |
| CNc1ccnc(Nc2ccc(OC)c(OCC(C)(O)CN3CCC3)c2)n1 (stereo not drawn) [Compound 1005] | 1000 to 10000 | 1000 to 10000 |
| CNc1cc(C)nc(Nc2cnc(OC)c(OC[C@H](O)CN3CCC3)c2)n1 [Compound 963] | < 100 | < 100 |
| COc1ncc(Nc2nc(C)cc(NCC3COC3)n2)cc1OC[C@H](O)CN1CCCC1 [Compound 884] | > 10000 | > 10000 |
| CNc1cc(C)nc(Nc2cc(OCCCN3CCCC3)c3ncnn3c2)n1 [Compound 623] | 1000 to 10000 | 1000 to 10000 |
| CCN1CCC(O)(COc2cc(Nc3nccc(NC)n3)ccc2OC)C1 (stereo not drawn) [Compound 1006] | 100 to 1000 | < 100 |
| CNCCC(C)Oc1cc(Nc2nccc(NC)n2)ccc1OC (stereo not drawn) [Compound 1011] | 1000 to 10000 | 1000 to 10000 |
| COc1cc2c(C3CCN(C)CC3)nc(N3CCCC3)nc2cc1OCCCN1CC(O)C1 [Compound 950] | 100 to 1000 | 100 to 1000 |
| CNC(=O)C1CCN(c2cc3nc(NC)cc(C)c3cc2OC)C1 (stereo not drawn) [Compound 900] | > 10000 | > 10000 |
| CNc1ccnc(Nc2ccc(OC)c(OC[C@@H]3CN(C)CCO3)c2)n1 [Compound 936] | > 10000 | > 10000 |
| CNS(=O)(=O)CCNc1cc(C)nc(Nc2ccc(OC)c(OCCCN3CCCC3)c2)n1 [Compound 892] | < 100 | < 100 |
| CNc1cc(C2CCN([C@@H]3CCOC3)CC2)c2cc(OC)c(OCCCN3CCCC3)cc2n1 [Compound 866] | < 100 | < 100 |
| COc1cc2c(C3CCN([C@H]4CCOC4)CC3)cc(C)nc2cc1OCCCN1CCCC1 [Compound 864] | < 100 | < 100 |
| CNc1cc(C)nc(Nc2ccc(CNC(=O)c3ccccc3)c(OC)c2)n1 [Compound 876] | > 10000 | > 10000 |
| CNc1cc(C)nc(Nc2ccc(OC)c(OC[C@H](O)CN3CC(C)C3)c2)n1 [Compound 985] | 100 to 1000 | < 100 |
| CNc1cc(C2CCOCC2)c2cc(OC)c(OCCCN3CC(O)C3)cc2n1 [Compound 902] | < 100 | < 100 |

| SMILES | IC50 (human EHMT2 913-1193) [nM] | IC50 (EHMT1) [nM] |
| --- | --- | --- |
| CNc1cc(C)nc(Nc2ccc(OC)c(OCCCc3nc(Cl)c[nH]3)c2)n1 [Compound 890] | > 10000 | > 10000 |
| CNc1cc(C)nc(Nc2ccc(OC)c(CNCCN3CCC3)c2)n1 [Compound 965] | < 100 | < 100 |
| CNc1ccnc(Nc2ccc(OC)c(OCCC(C)N3CCC3)c2)n1 (stereo not drawn) [Compound 1014] | 1000 to 10000 | 100 to 1000 |
| CNc1ccnc(Nc2ccc(OC)c(OCCC(C)NC)c2)n1 (stereo not drawn) [Compound 1016] | 1000 to 10000 | 100 to 1000 |
| COc1cc2cc(C#N)c(C)nc2cc1OCCCN1CCCC1 [Compound 895] | > 10000 | > 10000 |
| CNc1cc(C)nc(Nc2cc(OC[C@H](O)CN3CCCC3)c(OC)cn2)n1 [Compound 886] | 1000 to 10000 | 1000 to 10000 |
| CNc1cc(C)nc(Nc2ccc(OC)c(OCCCc3nc(Cl)cn3C)c2)n1 [Compound 891] | > 10000 | > 10000 |
| CNc1cc(C)nc(Nc2ccc(OC)c(C#CCN3CCOCC3)c2)n1 [Compound 904] | > 10000 | 1000 to 10000 |
| CNc1ccnc(Nc2cnc(OC)c(OCCCN3CCC3)c2)n1 [Compound 914] | 100 to 1000 | < 100 |
| CNC(=O)N1CC(CNc2cc(C)nc(Nc3cnc(OC)c(OCCCN4CCCC4)c3)n2)C1 [Compound 888] | 100 to 1000 | 100 to 1000 |
| CNC[C@@H](O)COc1cc(Nc2nccc(NC)n2)cnc1OC [Compound 918] | 1000 to 10000 | 100 to 1000 |
| CNc1cc(C)nc(Nc2ccc(OC)c(C(=O)NC3CCN(C)CC3)c2)n1 [Compound 873] | > 10000 | > 10000 |
| CNc1cc(C)nc(Nc2c[nH]c(=O)c(OCCCN3CCCC3)c2)n1 [Compound 621] | > 10000 | 1000 to 10000 |
| CNc1ccnc(Nc2ccc(OC)c(OC[C@@H]3CCN(C4CC4)C3)c2)n1 [Compound 928] | 100 to 1000 | < 100 |
| COc1cnc(Nc2cc(NCC3COC3)cnn2)cc1OCCCN1CCCC1 [Compound 894] | 100 to 1000 | 100 to 1000 |
| CNCCCOc1cc(Nc2nccc(NC)n2)cnc1OC [Compound 917] | 1000 to 10000 | 100 to 1000 |
| CNc1cc(C)nc(Nc2ccc(OC)c(OC[C@@H](O)CN3CCCC3)c2)n1 [Compound 905] | 100 to 1000 | 100 to 1000 |
| CNc1ccnc(Nc2cnc(OC)c(OC[C@@H]3CCN(C)C3)c2)n1 [Compound 912] | 100 to 1000 | < 100 |
| CNc1ccnc(Nc2ccc(OC)c(OC[C@H](O)CN3CCC3)c2)n1 [Compound 908] | < 100 | < 100 |
| CNc1ccnc(Nc2ccc(OC)c(OC[C@H]3CN(C)CCO3)c2)n1 [Compound 931] | > 10000 | > 10000 |
| CNc1ccnc(Nc2ccc(OC)c(OC[C@@H](O)CN3CCC3)c2)n1 [Compound 907] | 1000 to 10000 | 100 to 1000 |
| CNCC(C)COc1cc(Nc2nccc(NC)n2)ccc1OC (stereo not drawn) [Compound 1009] | 1000 to 10000 | 1000 to 10000 |

— patent publication US20210198277A1, “AMINE-SUBSTITUTED ARYL OR HETEROARYL COMPOUNDS” (Epizyme, Inc., priority 2016, published 2021)
